Laboratory results from PubChem BioAssay AID2305 (GlaxoSmithKline (GSK), 2010).
Values joined by “and” are separate entries in the source; they are usually repeats but may differ in a detail not shown here. Equal values may be shown once.

tested on: P. falciparum 3D7 growth, pLDH absorbance; experiment: blood-stage malaria parasite growth potency – strain 3D7, dose response (AID 2305)

`O=C(Nc1cccc(C(F)(F)F)c1)Nc1ccc(F)c([N+](=O)[O-])c1` and `C[C@@H]1CN(c2cnn(Cc3cccc(NC(=O)Nc4ccc(F)cc4[N+](=O)[O-])c3)c(=O)c2Cl)C[C@H](C)N1` are within 1.5-fold of each other in IC50: 0.7 µM for the first, 0.87 µM for the second.

`Cc1c(-c2cccc(CNCCc3ccc(Cl)cc3)c2)cnc(N)c1C` and `Clc1ccc(-c2cc3c(NCc4ccncc4)nccc3s2)cc1` are within 1.5-fold of each other in IC50: 1.04 µM for the first, 0.85 µM for the second.

Compared with `Cn1nccc1C(=O)NCCNCc1cccc(-c2ccc(-c3nc4ccccc4[nH]3)s2)c1`, `CN(CCc1ccccn1)Cc1ccc(-c2ccc(-c3nc4ccccc4[nH]3)s2)cc1` is 2-fold higher in IC50: 0.3 µM for the first, 0.59 µM for the second. The first is the more potent here.

`Cc1cc(-c2cccc3c(NC(=O)N4CCc5cc6nccc(N7CCN8CCC[C@H]8C7)c6cc54)cccc23)cc(C)n1` and `CN1CCN(c2ccnc3ccc(NC(=O)Nc4ccccc4Br)cc23)CC1` are within 1.5-fold of each other in IC50: 0.49 µM for the first, 0.37 µM for the second.

`COc1ccc(Cn2c(Nc3cccc(C(F)(F)F)c3)nc3cc(C(=O)NCCN4CCCC4)ccc32)cc1Cl` and `COc1cc(CN2CCC(CO)(Cc3cccc(C(F)(F)F)c3)CC2)c(Cl)cc1O` are within 1.5-fold of each other in IC50: 0.83 µM for the first, 0.9 µM for the second.

Going from `N#Cc1ccc(N[C@@H](CC2CCCCC2)C(=O)NCc2cc(F)c(F)cc2F)c2ccccc12` to `COc1cc(F)c2nccc([C@@H](O)CN3CC[C@@H](NC(=O)OCc4ccccc4)[C@@H](F)C3)c2c1`, the IC50 falls from 0.95 µM to 0.41 µM (2.3-fold).

First: c1ccc(CN2CCC(Nc3ccc(-c4cn[nH]c4-c4ccccn4)nc3)CC2)cc1
Second: CC(C)CNCc1cccc(-c2ccc(CNC3CCN(Cc4ccccc4)CC3)cc2)c1
The IC50 of the first is 3-fold higher: 0.8 µM for the first, 0.27 µM for the second.

First: COc1ccc(F)cc1-c1ccccc1CNC(=O)CN(C)S(=O)(=O)c1cc(C)cc(Cl)c1C
Second: COc1cc(NCCCNCc2cn(Cc3cc(Br)cc(Br)c3)c3ccccc23)nc2ccccc12
The IC50 of the first is 3.7-fold higher: 0.66 µM for the first, 0.18 µM for the second.

Going from `Clc1ccc(CCNCCCCCCNCCc2ccc3c(c2)OCO3)cc1` to `COc1cc2ccccc2c(OC)c1CCNCCCCNCCc1c(OC)cc2ccccc2c1OC`, the IC50 falls from 1.73 µM to 0.89 µM (1.9-fold). The second is the more potent here.

Compared with `CCNC(=O)Nc1ccc(-c2ccc(-c3nc4c(C)cccc4[nH]3)s2)cc1`, `Cc1cccc2[nH]c(-c3ccc(-c4ccc(NC(=O)c5cncn5C)cc4)s3)nc12` is 1.6-fold lower in IC50: 1.07 µM for the first, 0.67 µM for the second. The second is the more potent here.

Compared with `N#Cc1cnc2cc(-c3cnc(CNCCN4CCOCC4)s3)ccc2c1Nc1ccc(Oc2ccccc2)cc1`, `N#Cc1cccc(C(=O)NC2CCN(c3ccnc(Nc4ccc(F)cc4)n3)C2)c1` (stereo not drawn) is 1.8-fold lower in IC50: 0.73 µM for the first, 0.4 µM for the second. The second is the more potent here.

Going from `CCCN1CCN(Cc2ccc(-c3ccc(-c4nc5ccccc5[nH]4)s3)cc2)CC1` to `Cc1cccc2[nH]c(-c3ccc(-c4cccc(CN5CCN(CCN6CCOCC6)CC5)c4)s3)nc12`, the IC50 falls from 0.61 µM to 0.15 µM (4.1-fold). The second is the more potent here.

`CCc1cc(OC)ccc1C1CCN(CCCCNC(=O)c2ccc(NC(=O)c3ccc(Cl)cc3)cc2)CC1` and `CC(=O)c1ccc(-c2ccc(C(=O)NCCCCN3CCC(c4ccc5c(c4O)CCCC5)CC3)cc2)cc1` are within 1.5-fold of each other in IC50: 1.07 µM for the first, 0.76 µM for the second.

`COc1ccccc1C1CCN(C2CCC(NC(=O)/C=C/c3ccc(C(F)(F)F)cc3)CC2)CC1` (stereo not drawn) and `CN1CCN(CCCN(Cc2ccc(-c3cccc(CNC4CCCC4)c3)cc2)C(=O)/C=C/c2ccccc2)CC1` are within 1.5-fold of each other in IC50: 1.16 µM for the first, 1.33 µM for the second.

Compared with `CCOc1cc(Br)c(C(C)NC(=O)c2cccc(OC)c2)cc1OCC` (stereo not drawn), `COc1ccc(Nc2nccc(NCCNC(=O)c3cc4ccccc4s3)n2)cc1` is 6-fold higher in IC50: 0.17 µM for the first, 1.02 µM for the second.

First: O=C(C=NO)Nc1ccccc1[N+](=O)[O-]
Second: CN(CC(=O)Nc1cc(C(F)(F)F)ccc1-n1cncn1)Cc1ccc2ccccc2c1
The IC50 of the first is 3.4-fold higher: 0.79 µM for the first, 0.23 µM for the second. The second is the more potent here.

`CCS(=O)(=O)c1ccc(OC)c(Nc2nccc(-c3c(-c4cccc(NC(=O)c5c(F)cccc5F)c4)nn4ncccc34)n2)c1` and `CN(C)c1cccc(NC(=O)NC2N=C(c3ccccc3)c3ccccc3N(CC(=O)N(C)c3ccccc3)C2=O)c1` (stereo not drawn) are within 1.5-fold of each other in IC50: 1.03 µM for the first, 0.95 µM for the second.

`O=C(Nc1cccc(F)c1)N(Cc1ccc(-c2ccc(CN3CCNCC3)cc2)cc1)C1CCN(Cc2ccccc2)CC1` and `CCN(CC)CCN(Cc1ccc(-c2ccc(C(F)(F)F)cc2)cc1)C(=O)Cn1nc(-c2ccc(C(F)(F)F)cc2)ccc1=O` are within 1.5-fold of each other in IC50: 0.77 µM for the first, 0.8 µM for the second.

`CC(C)c1sc(N2CCN(C)CC2)nc1C(=O)NCCc1ccc(Br)cc1` and `COc1ccc(-c2cc3ncn(CC(=O)N4CCN(c5cccc(OC)c5)CC4)c(=O)c3s2)cc1` are within 1.5-fold of each other in IC50: 1.13 µM for the first, 1.06 µM for the second.

`CCCCCCCc1c2c(C)c(C(=O)OCC)nc-2cc2n1CC(C)=C2C` and `CCN(CC)CCOc1ccc(C(O)(C#CC(O)(c2ccc(C)cc2)c2ccc(OCCN(CC)CC)cc2)c2ccc(C)cc2)cc1` (stereo not drawn) are within 1.5-fold of each other in IC50: 1.14 µM for the first, 0.9 µM for the second.

Going from `COc1cc(OC)nc(C(Sc2ccc(NC(=O)c3cccs3)cc2)c2ccccc2)n1` (stereo not drawn) to `CCCC(=O)Nc1ccc(OCCCN(Cc2ccccc2C(F)(F)F)c2ccc(C#N)c(C(F)(F)F)c2)cc1`, the IC50 rises from 0.06 µM to 0.93 µM (16-fold).

Compared with `CC(C)CCNCc1ccc(OCc2ccccc2COc2ccc(CNCCC(C)C)cc2I)c(I)c1`, `Nc1ncc(Cc2ccc3c(ccc4ccccc43)c2)c(N)n1` is 1.8-fold higher in IC50: 0.43 µM for the first, 0.76 µM for the second. The first is the more potent here.

`CC(C)(C)c1ccc(-c2nnc(N)nc2N)cc1` and `CN1CCCc2cc(NC(=O)C=Cc3ccc(-c4ccc(F)cc4F)o3)ccc2C1` are within 1.5-fold of each other in IC50: 0.86 µM for the first, 0.78 µM for the second.

For `NC(=O)c1ccc2[nH]cc(C3CCN(CC4CCC(NC(=O)/C=C/c5ccc(Cl)c(Cl)c5)CC4)CC3)c2c1` (stereo not drawn), the IC50 was 0.87 µM and 0.76 µM.
For `COc1ccc2ncc(F)c(C(O)CN3CCC(NCc4ccc5c(n4)NC(=O)CO5)CC3)c2c1` (stereo not drawn), the IC50 was 1.11 µM and 0.37 µM.
